# Measurements from PubChem BioAssay (NCI).
#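 Growth conditions: 96-well plates. Treatment: test compound, 48 hours, 5 concentrations. Analysis: linear interpolation between bracketing concentrations; unreached endpoints set to highest concentration. Abbreviation: GI50, concentration required for 50% inhibition of growth. TGI is the concentration that stops growth completely.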
# Experiments:
# Assay in all cases: growth of human tumour cells (NCI), 48 h
# 786-0 renal = tested on: 786-0 renal
# HCC-2998 colon = tested on: HCC-2998 colon
# HOP-62 NSCLC = tested on: HOP-62 NSCLC
# LOX IMVI melanoma = tested on: LOX IMVI melanoma
# M14 melanoma = tested on: M14 melanoma
# MALME-3M melanoma = tested on: MALME-3M melanoma
# SK-MEL-28 melanoma = tested on: SK-MEL-28 melanoma
# SR leukemia = tested on: SR leukemia
# MDA-MB-231 breast = tested on: MDA-MB-231 breast
# NCI/ADR-RES ovarian = tested on: NCI/ADR-RES ovarian
SMILES,TGI (786-0 renal) [µM],TGI (HCC-2998 colon) [µM],TGI (HOP-62 NSCLC) [µM],TGI (LOX IMVI melanoma) [µM],TGI (M14 melanoma) [µM],TGI (MALME-3M melanoma) [µM],TGI (SK-MEL-28 melanoma) [µM],TGI (SR leukemia) [µM],GI50 (786-0 renal) [µM],GI50 (HCC-2998 colon) [µM],GI50 (HOP-62 NSCLC) [µM],GI50 (LOX IMVI melanoma) [µM],GI50 (M14 melanoma) [µM],GI50 (MDA-MB-231 breast) [µM],TGI (MDA-MB-231 breast) [µM],GI50 (NCI/ADR-RES ovarian) [µM],TGI (NCI/ADR-RES ovarian) [µM],GI50 (SK-MEL-28 melanoma) [µM],GI50 (SR leukemia) [µM],GI50 (MALME-3M melanoma) [µM]
C=C1C(=O)O[C@H]2[C@H]1[C@H](OC(=O)/C(C)=C\C)CC(=C)[C@@H]1[C@H](O)[C@H]3O[C@@]3(C)[C@@]12O,> 100,> 100,> 100,> 100,> 100,> 100,> 100,> 100,,,,,,,,,,,,
C=CCC1([C@H](C)[C@@H](OC(C)=O)c2cc(OC)c(OC)c(OC)c2)C[C@@H](OC)CCC1=O (some centres undefined),26.7,,85.3,,30.4,43.1,52.4,91.7,,,,,,,,,,,,
CC(=O)NNc1nc(C)c(C(=O)NNC(=O)C(=O)Nc2ccccc2C#N)s1,> 100,> 100,> 100,> 100,> 100,> 100,> 100,> 100,,,,,,,,,,,,
COc1ccccc1NC(=O)CC(=O)N1N=C(C)C(N=Nc2ccc(S(N)(=O)=O)cc2)C1=O (centres undefined),> 100,> 100,> 100,> 100,> 100,> 100,> 100,> 100,,,,,,,,,,,,
N#C/C(=C1\OC(=O)C(c2ccc(Br)cc2)=C1O)c1ccc(Br)cc1,27.9,28.9,33.3,30.7,28.4,31,31.7,55.6,,,,,,,,,,,,
COc1ccc(-c2cc(=O)c3cc4c(cc3[nH]2)OCO4)c(OC)c1OC,> 100,> 100,> 100,> 100,> 100,> 100,> 100,70.9,,,,,,,,,,,,
CC(=O)NC(CCCNCc1ccccc1)C(=O)NCc1ccccc1 (centres undefined),> 100,> 100,> 100,> 100,> 100,> 100,> 100,,,,,,,,,,,,,
CCCC[C@H](NC(=O)[C@H]1CCCN1C)C(=O)N(C)[C@H](C[C@@H](OC(C)=O)c1nc(C(=O)N[C@@H](Cc2ccccc2)C[C@H](C)C(=O)OCC)cs1)C(C)C,9.96,10.9,> 33.3,9.99,3.77,,17.4,5.24,0.0171,0.0113,0.0439,0.0173,0.0163,0.018,0.844,0.542,> 33.3,0.029,< 0.00333,
N#CC(C(=O)/C(=N/NC(=O)c1ccccc1O)C(C#N)c1ccc(Cl)cc1)c1ccc(Cl)cc1 (centres undefined),29.9,,38.7,27.3,38.8,25.5,27.7,,,,,,,,,,,,,
CN(C(=O)C12C3C4C5C3C1(C(=O)O)C5C42)C(C)(C)C (centres undefined),> 100,> 100,> 100,65.1,> 100,> 100,> 100,> 100,,,,,,,,,,,,
COc1cc2c(cc1OC)C(N(C)C)C(c1ccccc1)=C2Cl (centres undefined),73.9,,98.8,31.9,34.3,,36,50.4,,,,,,,,,,,,
CC1SC(c2c(Cl)cccc2Cl)N(NC(=O)c2[nH]c3ccc(F)cc3c2-c2ccccc2)C1=O (centres undefined),4.44,> 100,3.33,3.35,30.2,4.35,17.2,,2.14,25,1.79,1.71,3.96,2.13,4.28,2.05,4.8,3.57,,1.43
COc1cccc(NC(=O)CC(=O)N2N=C(N(CCC#N)c3ccc(Cl)cc3)CC2c2ccccc2)c1 (centres undefined),> 100,> 100,> 100,> 100,> 100,> 100,> 100,> 100,,,,,,,,,,,,
CC1=NOC(=O)/C1=C/c1ccccc1O,> 100,> 100,> 100,> 100,> 100,> 100,> 100,> 100,,,,,,,,,,,,
c1cc(-c2cn3ccsc3n2)ccn1,> 100,> 100,> 100,> 100,> 100,> 100,> 100,> 100,,,,,,,,,,,,
COc1ccc(-c2ccc(/C=N/n3c(COc4ccc(Cl)cc4Cl)n[nH]c3=S)o2)c([N+](=O)[O-])c1,54.2,,35.7,,31.6,45.1,62.5,,29,,19.8,,16,,,19.8,46.4,30.3,,19.9
O=C(CC(=O)CC(O)(C(F)(F)F)C(F)(F)F)CC(O)(C(F)(F)F)C(F)(F)F,> 10,,> 10,> 10,> 10,> 10,> 10,,,,,,,,> 10,,> 10,,,
N#Cc1cnc2cc(OC[C@H](O)CO)c(NC(=O)CC3CSSC3)cc2c1Nc1ccc(OCc2cccc(F)c2)c(Cl)c1,9.6,1.55,1.81,3.41,0.447,2.06,0.319,,1.76,0.796,0.895,2.26,0.139,0.288,1.03,2.72,5.1,0.126,,0.97
O=C([O-])c1ccccc1Nc1ccccn1.O=C([O-])c1ccccc1Nc1ccccn1.[Ni+2],> 100,> 100,> 100,> 100,> 100,> 100,> 100,> 100,> 100,> 100,> 100,> 100,> 100,,,,,58.9,> 100,> 100
COC(=O)[C@@H](C)C[C@H](Cc1ccccc1)NC(=O)c1nc([C@@H](C[C@H](C(C)C)N(C)C(=O)[C@@H](NC(=O)[C@H]2CCCCN2C)C(C)C)OC(C)=O)sc1C,> 16.7,> 16.7,> 16.7,> 16.7,,,,> 16.7,< 0.00167,< 0.00167,0.00186,< 0.00167,,< 0.00167,0.441,0.0521,> 16.7,,< 0.00167,
Cc1cccc(NC(=O)CC(=O)N2N=C(N(CCC#N)c3ccc(Cl)cc3)CC2c2ccccc2)c1 (centres undefined),> 100,> 100,> 100,> 100,> 100,> 100,> 100,> 100,,,,,,,,,,,,

SMILES,TGI (786-0 renal) [µM],TGI (HCC-2998 colon) [µM],TGI (HOP-62 NSCLC) [µM],TGI (LOX IMVI melanoma) [µM],TGI (M14 melanoma) [µM],TGI (MALME-3M melanoma) [µM],TGI (SK-MEL-28 melanoma) [µM],TGI (SR leukemia) [µM],GI50 (786-0 renal) [µM],GI50 (HCC-2998 colon) [µM],GI50 (HOP-62 NSCLC) [µM],GI50 (LOX IMVI melanoma) [µM],GI50 (M14 melanoma) [µM],GI50 (MDA-MB-231 breast) [µM],TGI (MDA-MB-231 breast) [µM],GI50 (NCI/ADR-RES ovarian) [µM],TGI (NCI/ADR-RES ovarian) [µM],GI50 (SK-MEL-28 melanoma) [µM],GI50 (SR leukemia) [µM],GI50 (MALME-3M melanoma) [µM]
CCCc1[nH]nc(CCC(=O)N(Cc2ccccc2)Cc2ccccc2)c1CC,> 100,> 100,> 100,> 100,> 100,> 100,> 100,,,,,,,,,,,,,
O=C1c2ccccc2-c2c1c1ccccc1c(=O)n2CCCNCCCNCCCn1c2c(c3ccccc3c1=O)C(=O)c1ccccc1-2,0.172,0.167,,0.175,1.29,,2.83,,< 0.0362,< 0.0162,< 0.01,0.0215,0.333,< 0.01,0.112,0.319,1.98,1.17,,
CNS(=O)(=O)NN(C)S(=O)(=O)c1ccc(F)cc1,> 100,> 100,> 100,> 100,> 100,> 100,> 100,,,,,,,,,,,,,
CN(C)S(=O)(=O)c1ccc(NC(=O)COC(=O)c2ccc(S(=O)(=O)N3CCCCC3)cc2)cc1,> 100,> 100,> 100,> 100,,> 100,> 100,> 100,> 100,> 100,> 100,> 100,,> 100,> 100,> 100,> 100,> 100,> 100,> 100
CC1=NCCc2c1[nH]c1cc(O)ccc21,> 100,> 100,> 100,> 100,> 100,> 100,> 100,,,,,,,,,,,,,
COc1ccccc1NC(=O)C1=C(C)NC(C)=C(C(=O)Nc2ccccc2OC)C1c1ccccc1F,> 100,> 100,> 100,> 100,> 100,> 100,> 100,> 100,,,,,,,,,,,,
COC(=O)CCC1CCc2c(OC)ccc(O)c2C1=O (centres undefined),> 100,> 100,> 100,> 100,> 100,> 100,> 100,> 100,,,,,,,,,,,,
COc1nc(NC2OCC(OC(C)=O)C(OC(C)=O)C2OC(C)=O)c(N=CC=Nc2c(NC3OCC(OC(C)=O)C(OC(C)=O)C3OC(C)=O)nc(OC)n(C)c2=O)c(=O)n1C (centres undefined),> 100,> 100,> 100,> 100,> 100,> 100,> 100,> 100,,,,,,,,,,,,
COCCN1C2=CCCCC2=Nc2c1nc(N)[nH]c2=O,> 100,> 100,> 100,> 100,> 100,> 100,> 100,> 100,,,,,,,,,,,,
C[N+](C)(C)CC(=O)N/N=C(/Cc1nc2c3c(ccc2[nH]c1=O)C(=O)c1ccccc1C3=O)C(=O)Nc1ccc(Cl)c(Cl)c1,> 100,> 100,> 100,,> 100,> 100,> 100,> 100,,,,,,,,,,,,
Nc1cc2cccc[n+]2c2cc(Cl)ccc12,,37.7,,,47.4,11.7,37.3,16.2,8.16,16.8,,,19.3,17.7,51,,,14.9,2.33,2.38
Cc1ccc(C(=O)O/N=C2/CCC/C2=C\c2ccccc2)cc1,> 100,> 100,> 100,> 100,> 100,> 100,> 100,> 100,,,,,,,,,,,,
COC(=O)c1csnn1,> 100,> 100,> 100,> 100,> 100,> 100,> 100,> 100,,,,,,,,,,,,
CC(C)C(=O)Nc1nc2nc[nH]c2c(=O)[nH]1,> 100,> 100,> 100,> 100,> 100,> 100,> 100,> 100,,,,,,,,,,,,
COC(=O)CCC(NC(=S)N/N=C(\C)c1nccs1)C(=O)OC (centres undefined),> 100,> 100,> 100,> 100,> 100,> 100,> 100,,,,,,,,,,,,,
CN(C)/C=C/c1nnc([N+](=O)[O-])s1,36.3,33.2,51.5,17.4,29.1,14.6,,,,,,,,,85.9,,37.7,,,
O=Cc1cn(C(=O)c2ccccc2)c2ccccc12,> 100,> 100,> 100,,> 100,> 100,> 100,,,,,,,,,,,,,
CC1(C)SC2C(NC(=O)C(N)c3ccccc3)C(=O)N2C1C(=O)O (centres undefined),> 100,> 100,> 100,> 100,> 100,,> 100,> 100,,,,,,,> 100,,> 100,,,
CCCCCCCCCc1cc(=O)c2ccc(OCc3ccccc3)cc2o1,> 100,> 100,> 100,> 100,> 100,> 100,> 100,,,,,,,,,,,,,
O=C(O)c1ccc([Se][Se]c2ccc(C(=O)O)cc2)cc1,> 100,> 100,,,35.6,68.3,55.6,,,,,,,,,,,,,
O=c1c2c([nH]c3cc4c(cc13)OCO4)-c1ccccc1CC2,> 100,> 100,> 100,> 100,> 100,> 100,> 100,> 100,,,,,,,,,,,,
